The values that follow come from publication PMC11380953, “Multivalent, calcium-independent binding of surfactant protein A and D to sulfated glycosaminoglycans of the alveolar epithelial glycocalyx” (American Journal of Physiology - Lung Cellular and …, 2024).

Test [1] concerns the target T1, rhSP-D (human recombinant SP-D) (Homo sapiens, UniProt P35247).
T1 construct: host or cells: CHO cells
T1 sequence (P35247 21-375): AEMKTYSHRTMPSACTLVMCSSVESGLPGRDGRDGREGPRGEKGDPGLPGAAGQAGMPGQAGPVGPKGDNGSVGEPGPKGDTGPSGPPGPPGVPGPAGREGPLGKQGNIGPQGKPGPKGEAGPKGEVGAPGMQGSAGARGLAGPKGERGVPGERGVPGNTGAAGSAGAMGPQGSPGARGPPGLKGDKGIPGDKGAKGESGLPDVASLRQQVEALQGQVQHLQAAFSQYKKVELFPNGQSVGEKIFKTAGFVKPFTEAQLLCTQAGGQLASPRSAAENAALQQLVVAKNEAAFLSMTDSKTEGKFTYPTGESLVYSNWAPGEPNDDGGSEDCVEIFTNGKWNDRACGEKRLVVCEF
Nature of the test: Microscale thermophoresis (MST) binding to rhSP-D. Further details: Response Amplitude: unit not given here. The protocol:
(§1) Human-isolated and recombinant proteins were labeled using the Monolith Protein Labeling Kit RED-NHS according to the manufacturer’s instructions. This kit reagent reacts with lysine residues present in the sequence of the protein, as the dye carries a reactive NHS-ester group. Briefly, as all the proteins were in a Tris buffer solution, the buffer solution was exchanged to a HEPES-based buffer with the A-Column provided in the kit. Then, 10 µM solution of protein was incubated with a threefold excess of dye in 100 µL for 30 min at room temperature protected from light. The labeled protein was separated from the free dye using the B-Column provided in the kit. The concentration of the labeled protein {c(M) = [A205 − (A650 × 0.19)]/[31 × MWprotein]) and the degree of labeling [DOL = A650/(195.000 M^−1cm^−1 × c(M)] were calculated according to the manufacturer’s instruction, measuring absorption at 205 nm (for the protein) and 650 nm (for the dye).
(§2) Thermophoresis is the phenomenon of movement of particles along a temperature gradient. Solvated molecules move from higher to lower temperature. This movement or depletion of molecules from the heat is quantified by the Soret coefficient ST: Chot/Ccold = exp (−STΔT). The depletion of molecules depends on the interface between molecule and solvent. Therefore, thermophoresis monitors changes in size, charge, and solvation entropy of molecules. In this regard, the thermophoresis or movement of a protein is different from a protein-ligand complex ([35]). Microscale or miniaturized thermophoresis allows to monitor molecular interaction in only a few microliters. For this method, the fluorescently labeled protein is mixed with a decreasing concentration of a ligand in 16 glass capillaries. The initial fluorescence is measured (Fcold), then an infrared (IR) laser beam is switched on and focused on the center of the first capillary, where the temperature gradient is created from the center to the walls of the capillary. At the same time, a dichroic mirror allows fluorescence from the labeled protein to be monitored (Fhot). The rate of fluorescence change is related to the amount of protein-ligand complex form, which depends on the ligand concentration, due to changes in size, charge, or hydration shell of the protein-ligand complex. The dissociation constant KD is calculated from the binding curve derived by plotting the normalized fluorescence (FNorm) at a given time after the start of the thermophoresis against the respective ligand concentration ([33], [34], [36]).
(§3) Samples were measured in a Monolith NT.115, using Premium Capillaries (MO-K025) and Monolith Protein labeling kit RED-NHS (MO-L011) all from NanoTemper Technologies (Munich, Germany). Solutions of a 3X concentrated MST buffer (15 mM Tris, 300 mM NaCl, 0.3% Tween 20, 15 mM CaCl2, pH 7.4), sugars (270 mM) or GAG (30 µM) solution, and protein solution (27 nM) were prepared separately. When a different concentration was used, a threefold concentration of the solution was prepared. Afterward, sugars and GAG solutions were diluted 1:2 with water in a series of 16 steps. For the measurement, 3 µL of each prepared component (3 µL MST buffer, 3 µL GAG solution, and 3 µL labeled protein) was mixed, centrifuged shortly to eliminate precipitates, and loaded into a glass capillary. The final concentrations of the sugars were thus between 90 –and 0.00275 mM or GAGs 10 and 0.000305 µM for GAGs, respectively. The 16 capillaries were loaded in the Monolith NT.115 and measurements were performed with a 40% LED power and medium MST power at 25°C.
(§4) Every set of 16 capillaries was prepared in 3–6 replicates (technical replicates) and measured. The replicate measures of every capillary were plotted against concentration and outliers were excluded, using the MO Affinity Analysis 3 v01 software (NanoTemper Technologies, Munich, Germany). […]

Test [2] concerns the target T2, recSP-A2 (human recombinant SP-A2) (Homo sapiens, UniProt Q8IWL1).
T2 construct: purchased Aviva Systems Biology OPCD07132; host or cells: prokaryotic expression
Nature of the test: Microscale thermophoresis (MST) binding to recSP-A2. Particulars: for Kd: recSP-A2, GAGs from Fig. 2, read-out: Kd (±KD Confidence); for Response Amplitude: recSP-A2, MST, GAGs from Fig. 2. The method, then:
as §1, §2, §3, §4

Setting [3] is: GAGs from Fig. 2, read-out: Kd (±KD Confidence).

Read-outs that look alike come from different tables or passages of the source.

T2 sequence (Q8IWL1 21-248): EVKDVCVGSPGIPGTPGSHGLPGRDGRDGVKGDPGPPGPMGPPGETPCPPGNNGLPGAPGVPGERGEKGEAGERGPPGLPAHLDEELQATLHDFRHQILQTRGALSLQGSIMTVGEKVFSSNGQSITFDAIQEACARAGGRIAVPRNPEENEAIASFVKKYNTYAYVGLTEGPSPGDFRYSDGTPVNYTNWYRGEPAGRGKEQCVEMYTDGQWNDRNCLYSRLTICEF

chondroitin sulfate sodium salt [CS]: the “Response Amplitude” value came out at 16.10 in test [1] (0 mM Ca^2+); 10.05 in test [1] (2.5 mM Ca^2+); 10.83 in test [1] (5 mM Ca^2+); 21.36 in test [1] (10 mM Ca^2+); 23.54 in test [1] (MST, GAGs from Fig. 2); 31.90 in test [2]. The Kd in test [1] (0 mM Ca^2+, read-out: KD) amounted to 17600 nM; in test [1] (2.5 mM Ca^2+, read-out: KD) it was 152 nM; in test [1] (5 mM Ca^2+, read-out: KD) it was 97.1 nM; in test [1] (10 mM Ca^2+, read-out: KD), 131 nM; in test [1] (setting [3]), 0.808 nM; in test [2], 55.2 nM.

Consider hyaluronic acid sodium salt [HA], for which the “Response Amplitude” value turned out to be 5.33 in test [1] (5 mM Ca^2+); 3.25 in test [1] (10 mM Ca^2+); 9.67 in test [1] (MST, GAGs from Fig. 2); 19.28 in test [2]. Further, the Kd in test [1] (5 mM Ca^2+, read-out: KD) was 41.9 nM; in test [1] (10 mM Ca^2+, read-out: KD), 31.1 nM; in test [1] (setting [3]), 22.1 nM; in test [2] it was 1870 nM.

heparan sulfate sodium [HS]: the “Response Amplitude” value in test [1] (0 mM Ca^2+) amounted to 12.04; in test [1] (2.5 mM Ca^2+), 33.47; in test [1] (5 mM Ca^2+) it was 6.29; in test [1] (10 mM Ca^2+), 15.22; in test [1] (MST, GAGs from Fig. 2), 3.55; in test [2], 15.59. Moreover, the Kd worked out at 735 nM in test [1] (0 mM Ca^2+, read-out: KD); 7.44 nM in test [1] (2.5 mM Ca^2+, read-out: KD); 431 nM in test [1] (5 mM Ca^2+, read-out: KD); 0.688 nM in test [1] (10 mM Ca^2+, read-out: KD); 287 nM in test [1] (setting [3]); 143 nM in test [2].
